Results taken from patent US20020035061A1, “COMPOSITIONS AND METHODS FOR TREATING INFECTIONS USING CATIONIC PEPTIDES ALONE OR IN COMBINATION WITH ANTIBIOTICS” (priority 1996, published 2002).

Legend:
Test in all cases: microbe, parasite or virus in culture
Format in all cases: cell-based
[1] = test system: vancomycin / teicoplanin resistant enterococci; details: for Vancomycin MIC + Peptide: in combination with the labelled peptide; for Peptide MIC + Vancomycin: in combination with vancomycin
[2] = test system: inherently resistant microorganisms
[3] = test system: microorganisms with acquired resistance; details: for Peptide MIC: A. calcoaceticus, in µg/mL

KWKSFIKKLTSAAKKVVTTAKPLISS [MBI 26]
Peptide MIC Alone ([1]; E. faecalis EFS005): >128 µg/mL
Peptide MIC Alone ([1]; E. faecalis EFS010): 4 µg/mL
Peptide MIC Alone ([1]; E. faecalis EFS011): >128 µg/mL
MBI 26 Alone (MIC) ([1]; E. faecalis VanA strains): 64 µg/mL
MBI 26 + Teicoplanin (MIC) ([1]; E. faecalis VanA strains, in combination with teicoplanin): 8 µg/mL
Amikacin MIC + Peptide ([1]; E. faecium EFM004): 8 µg/mL
Peptide MIC + Amikacin ([1]; E. faecium EFM004): 32 µg/mL
Peptide MIC Alone ([1]; E. faecium EFM004): 64 µg/mL
Peptide MIC Alone ([1]; E. faecium EFM004, Amikacin section): 64 µg/mL
Peptide MIC Alone ([1]; E. faecium EFM010): 32 µg/mL
Peptide MIC Alone ([1]; E. faecium EFM011): 32 µg/mL
Amikacin MIC + Peptide ([1]; E. faecium EFM020): 8 µg/mL
Peptide MIC + Amikacin ([1]; E. faecium EFM020): 32 µg/mL
Peptide MIC Alone ([1]; E. faecium EFM020, Amikacin section): 64 µg/mL
FIC ([1]; Vancomycin + peptide, E. faecalis EFS005): 0.31
FIC ([1]; Vancomycin + peptide, E. faecalis EFS010): 0.27
FIC ([1]; Vancomycin + peptide, E. faecalis EFS011): 0.25
FIC ([1]; Vancomycin + peptide, E. faecium EFM004): 0.25
FIC ([1]; Vancomycin + peptide, E. faecium EFM010): 0.53
FIC ([1]; Vancomycin + peptide, E. faecium EFM011): 0.31
Vancomycin MIC + Peptide ([1]; E. faecalis EFS005): 4 µg/mL
Vancomycin MIC + Peptide ([1]; E. faecalis EFS010): 1 µg/mL
Vancomycin MIC + Peptide ([1]; E. faecalis EFS011): 2 µg/mL
Vancomycin MIC + Peptide ([1]; E. faecium EFM004): 0.125 µg/mL
Vancomycin MIC + Peptide ([1]; E. faecium EFM010): 1 µg/mL
Vancomycin MIC + Peptide ([1]; E. faecium EFM011): 2 µg/mL
Peptide MIC + Vancomycin ([1]; E. faecalis EFS005): 16 µg/mL
Peptide MIC + Vancomycin ([1]; E. faecalis EFS010): 1 µg/mL
Peptide MIC + Vancomycin ([1]; E. faecalis EFS011): 32 µg/mL
Peptide MIC + Vancomycin ([1]; E. faecium EFM004): 16 µg/mL
Peptide MIC + Vancomycin ([1]; E. faecium EFM010): 16 µg/mL
Peptide MIC + Vancomycin ([1]; E. faecium EFM011): 8 µg/mL
FIC ([1]; peptide + Amikacin, E. faecium EFM004): 0.56
FIC ([1]; peptide + Amikacin, E. faecium EFM020): 0.75
susceptibility of teicoplanin resistant enterococci to teicoplanin ([1]; teicoplanin in combination with peptide): become susceptible to teicoplanin
susceptibility of vancomycin resistant enterococci (VRE) to vancomycin ([1]; vancomycin in combination with peptide): become susceptible to vancomycin
MBI 26 MIC + Erythro. ([2]; A. calcoaceticus AC001): 8 µg/mL
MBI 26 MIC Alone ([2]; A. calcoaceticus AC001): 16 µg/mL
MBI 26 MIC + Vancomycin ([2]; E. casseliflavus 97056 VanC): 1 µg/mL
MBI 26 MIC Alone ([2]; E. casseliflavus 97056 VanC): 8 µg/mL
MBI 26 MIC + Vancomycin ([2]; E. casseliflavus 97057 VanC): 0.5 µg/mL
MBI 26 MIC Alone ([2]; E. casseliflavus 97057 VanC): 2 µg/mL
MBI 26 MIC + Vancomycin ([2]; E. casseliflavus 97058 VanC): 0.25 µg/mL
MBI 26 MIC Alone ([2]; E. casseliflavus 97058 VanC): 4 µg/mL
MBI 26 MIC + Vancomycin ([2]; E. casseliflavus 97059 VanC): 0.5 µg/mL
MBI 26 MIC Alone ([2]; E. casseliflavus 97059 VanC): 32 µg/mL
MBI 26 MIC + Vancomycin ([2]; E. casseliflavus 97060 VanC): 0.25 µg/mL
MBI 26 MIC Alone ([2]; E. casseliflavus 97060 VanC): 0.5 µg/mL
Peptide MIC + Mupirocin ([2]; E. coli): 1 µg/mL
Peptide MIC Alone ([2]; E. coli, Mupirocin section): 2 µg/mL
MBI 26 MIC + Vancomycin ([2]; E. gallinarum 97044 VanC): 0.5 µg/mL
MBI 26 MIC Alone ([2]; E. gallinarum 97044 VanC): 8 µg/mL
MBI 26 MIC + Vancomycin ([2]; E. gallinarum 97046 VanC): 4 µg/mL
MBI 26 MIC Alone ([2]; E. gallinarum 97046 VanC): 2 µg/mL
MBI 26 MIC + Vancomycin ([2]; E. gallinarum 97047 VanC): 8 µg/mL
MBI 26 MIC Alone ([2]; E. gallinarum 97047 VanC): 64 µg/mL
MBI 26 MIC + Vancomycin ([2]; E. gallinarum 97048 VanC): 2 µg/mL
MBI 26 MIC Alone ([2]; E. gallinarum 97048 VanC): 2 µg/mL
MBI 26 MIC + Vancomycin ([2]; E. gallinarum 97049 VanC): 16 µg/mL
MBI 26 MIC Alone ([2]; E. gallinarum 97049 VanC): 64 µg/mL
MBI 26 MIC + Erythro. ([2]; K. pneumoniae KP001): 8 µg/mL
MBI 26 MIC Alone ([2]; K. pneumoniae KP001): 16 µg/mL
MBI 26 MIC + Erythro. ([2]; K. pneumoniae KP002): 32 µg/mL
MBI 26 MIC Alone ([2]; K. pneumoniae KP002): 64 µg/mL
MBI 26 MIC + Erythro. ([2]; P. aeruginosa PA041): 32 µg/mL
MBI 26 MIC Alone ([2]; P. aeruginosa PA041): 64 µg/mL
Peptide MIC Alone ([2]; P. aeruginosa, Ceftriaxone section): 128 µg/mL
Peptide MIC + Piperacillin ([2]; S. aureus MRSA): 4 µg/mL
Peptide MIC Alone ([2]; S. aureus MRSA, Piperacillin section): 32 µg/mL
Peptide MIC + Ceftriaxone ([2]; S. maltophilia): 2 µg/mL
Peptide MIC Alone ([2]; S. maltophilia, Ceftriaxone section): 8 µg/mL
FIC ([2]; peptide + Amikacin, S. maltophilia): 0.19
FIC ([2]; peptide + Ceftriaxone, S. maltophilia): 0.25
FIC ([2]; peptide + Mupirocin, E. coli): 0.50
FIC ([2]; peptide + Piperacillin, S. aureus MRSA): 0.13
Gentamicin MIC + Peptide ([3]; A. baumannii ABI001): 4 µg/mL
Peptide MIC + Gentamicin ([3]; A. baumannii ABI001): 4 µg/mL
Peptide MIC Alone ([3]; A. baumannii ABI001, Gentamicin section): 8 µg/mL
Gentamicin MIC + Peptide ([3]; A. baumannii ABI002): 0.5 µg/mL
Peptide MIC + Gentamicin ([3]; A. baumannii ABI002): 4 µg/mL
Peptide MIC Alone ([3]; A. baumannii ABI002, Gentamicin section): 8 µg/mL
Ceftriaxone MIC + Peptide ([3]; A. baumannii ABI005): 0.5 µg/mL
Peptide MIC + Ceftriaxone ([3]; A. baumannii ABI005): 1 µg/mL
Peptide MIC Alone ([3]; A. baumannii ABI005, Ceftriaxone section): 2 µg/mL
Ceftriaxone MIC + Peptide ([3]; A. baumannii ABI006): 8 µg/mL
Peptide MIC + Ceftriaxone ([3]; A. baumannii ABI006): 1 µg/mL
Peptide MIC Alone ([3]; A. baumannii ABI006, Ceftriaxone section): 2 µg/mL
Peptide MIC + Piperacillin ([3]; A. calcoaceticus 2): 16 µg/mL
Piperacillin MIC + Peptide ([3]; A. calcoaceticus 2): 4 µg/mL
Peptide MIC Alone ([3]; A. calcoaceticus 2, Piperacillin section): 32 µg/mL
Ciprofloxacin MIC + Peptide ([3]; A. calcoaceticus 5): 0.25 µg/mL
Peptide MIC + Ciprofloxacin ([3]; A. calcoaceticus 5): 16 µg/mL
Peptide MIC Alone ([3]; A. calcoaceticus 5, Ciprofloxacin section): >32 µg/mL
Peptide MIC + Piperacillin ([3]; A. calcoaceticus 7): 8 µg/mL
Piperacillin MIC + Peptide ([3]; A. calcoaceticus 7): 4 µg/mL
Peptide MIC Alone ([3]; A. calcoaceticus 7, Piperacillin section): >32 µg/mL
Peptide MIC ([3]; combination with Ceftazidime): 32
Peptide MIC ([3]; combination with Ciprofloxacin): 4
Ceftriaxone MIC + Peptide ([3]; B. cepacia BC003): 8 µg/mL
Peptide MIC + Ceftriaxone ([3]; B. cepacia BC003): 0.125 µg/mL
Peptide MIC Alone ([3]; B. cepacia BC003, Ceftriaxone section): >128 µg/mL
Peptide MIC + Piperacillin ([3]; E. cloacae 13): 8 µg/mL
Piperacillin MIC + Peptide ([3]; E. cloacae 13): 4 µg/mL
Peptide MIC Alone ([3]; E. cloacae 13, Piperacillin section): >32 µg/mL
Ciprofloxacin MIC + Peptide ([3]; E. cloacae 16): 0.25 µg/mL
Peptide MIC + Ciprofloxacin ([3]; E. cloacae 16): 16 µg/mL
Peptide MIC Alone ([3]; E. cloacae 16, Ciprofloxacin section): >32 µg/mL
Ciprofloxacin MIC + Peptide ([3]; E. cloacae 17): 0.25 µg/mL
Peptide MIC + Ciprofloxacin ([3]; E. cloacae 17): 16 µg/mL
Peptide MIC Alone ([3]; E. cloacae 17, Ciprofloxacin section): >32 µg/mL
Peptide MIC + Piperacillin ([3]; E. cloacae 19): 16 µg/mL
Piperacillin MIC + Peptide ([3]; E. cloacae 19): 4 µg/mL
Peptide MIC Alone ([3]; E. cloacae 19, Piperacillin section): >32 µg/mL
Ceftriaxone MIC + Peptide ([3]; E. cloacae ECL015): 4 µg/mL
Peptide MIC + Ceftriaxone ([3]; E. cloacae ECL015): 4 µg/mL
